Reference: PubChem BioAssay AID1259407 (Chemical Carcinogenesis Research Information System (CCRIS), 2018)
Entries after “also recorded” stand apart in the source; their conditions may differ. Calls of active or inactive are those of the source. How the calls were made is not given here.

Tested on: CCRIS mutagenicity, Ames/micronucleus/aberration tests
Test: CCRIS mutagenicity studies
[1] = Test System: AMES SALMONELLA TYPHIMURIUM, Strain/Indicator: TA98, Metabolic Activation: NONE, Method: STANDARD PLATE
[2] = Test System: AMES SALMONELLA TYPHIMURIUM, Strain/Indicator: TA98, Metabolic Activation: RAT, LIVER, S-9, AROCLOR 1254, Method: STANDARD PLATE
[3] = Test System: AMES SALMONELLA TYPHIMURIUM, Strain/Indicator: TA100, Metabolic Activation: NONE, Method: STANDARD PLATE
[4] = Test System: AMES SALMONELLA TYPHIMURIUM, Strain/Indicator: TA100, Metabolic Activation: RAT, LIVER, S-9, AROCLOR 1254, Method: STANDARD PLATE
[5] = Test System: AMES SALMONELLA TYPHIMURIUM, Strain/Indicator: TA1535, Metabolic Activation: NONE, Method: STANDARD PLATE
[6] = Test System: AMES SALMONELLA TYPHIMURIUM, Strain/Indicator: TA1535, Metabolic Activation: RAT, LIVER, S-9, AROCLOR 1254, Method: STANDARD PLATE
[7] = Test System: AMES SALMONELLA TYPHIMURIUM, Strain/Indicator: TA1537, Metabolic Activation: NONE, Method: STANDARD PLATE
[8] = Test System: AMES SALMONELLA TYPHIMURIUM, Strain/Indicator: TA1537, Metabolic Activation: RAT, LIVER, S-9, AROCLOR 1254, Method: STANDARD PLATE

In the case of `C[C@]12CC[C@@H]3c4ccc(O)cc4CC[C@H]3[C@@H]1CC[C@@H]2O`, the mutagenic call (End Point: IN VITRO CHROMOSOMAL ABERRATIONS, Test System: CHINESE HAMSTER CELL DON (22;XY), Metabolic Activation: NONE) is reported as “active; positive (ploidy changes)”, the mutagenic call (End Point: IN VITRO CHROMOSOMAL ABERRATIONS, Test System: CHO CELLS, Metabolic Activation: NONE) is reported as “active; positive (structural changes)” and the mutagenic call (End Point: IN VITRO CHROMOSOMAL ABERRATIONS, Test System: HUMAN LYMPHOCYTES, Metabolic Activation: NONE, Method: FISH) is reported as “active; positive (ploidy changes in chromosomes 1, 9, 16); also recorded: active; positive (ploidy changes in chromosomes 7 and 9)”. The mutagenic call (End Point: IN VITRO CHROMOSOMAL ABERRATIONS, Test System: HUMAN PERIPHERAL LYMPHOCYTES, Metabolic Activation: RAT, LIVER, S-9, AROCLOR 1254) was “inactive; negative”, the mutagenic call (End Point: IN VITRO CHROMOSOMAL ABERRATIONS, Test System: HUMAN PERIPHERAL LYMPHOCYTES, Metabolic Activation: RAT, LIVER, S-9, PHENOBARBITONE) was “active; positive” and the mutagenic call (End Point: IN VITRO CHROMOSOMAL ABERRATIONS, Test System: SYRIAN HAMSTER EMBRYO (SHE) CELLS, Metabolic Activation: NONE) was “active; positive (ploidy changes)”. For the same compound, the mutagenic call (End Point: IN VITRO MICRONUCLEUS, Test System: HUMAN PERIPHERAL BLOOD LYMPHOCYTES, Metabolic Activation: NONE) was “active; positive”, the mutagenic call (End Point: IN VITRO MICRONUCLEUS, Test System: HUMAN PERIPHERAL LYMPHOCYTES, Metabolic Activation: NONE) was “active; positive” and the mutagenic call (End Point: IN VIVO MICRONUCLEUS, Test System: BONE MARROW POLYCHROMATIC ERYTHROCYTES, Species: MOUSE, Strain/Sex: B6C3F1/MALE, FEMALE, Route: IP INJECTION) was “inactive; negative”. The mutagenic call (End Point: IN VIVO MICRONUCLEUS, Test System: BONE MARROW POLYCHROMATIC ERYTHROCYTES, Species: MOUSE, Strain/Sex: B6C3F1/MALE, Route: IP INJECTION) was “inactive; negative”, the mutagenic call (End Point: IN VIVO MICRONUCLEUS, Test System: BONE MARROW POLYCHROMATIC ERYTHROCYTES, Species: MOUSE, Strain/Sex: CBA/MALE, Route: IP) was “inactive; negative” and the mutagenic call (End Point: IN VIVO MICRONUCLEUS, Test System: BONE MARROW POLYCHROMATIC ERYTHROCYTES, Species: RAT, Strain/Sex: F344/MALE, Route: IP INJECTION) was “inactive; negative”. The mutagenic call (Test System: AMES SALMONELLA TYPHIMURIUM, Strain/Indicator: TA98, Metabolic Activation: MOUSE, LIVER, S-9, Method: STANDARD PLATE) was “inactive; negative”, the mutagenic call [1] was “inactive; negative” and the mutagenic call [2] was “inactive; negative”. The mutagenic call (Test System: AMES SALMONELLA TYPHIMURIUM, Strain/Indicator: TA100, Metabolic Activation: MOUSE, LIVER, S-9, Method: STANDARD PLATE) was “inactive; negative”, the mutagenic call [3] was “inactive; negative” and the mutagenic call [4] was “inactive; negative”. The mutagenic call (Test System: AMES SALMONELLA TYPHIMURIUM, Strain/Indicator: TA1535, Metabolic Activation: MOUSE, LIVER, S-9, Method: STANDARD PLATE) was “inactive; negative”, the mutagenic call [5] was “inactive; negative” and the mutagenic call [6] was “inactive; negative”. For the same compound, the mutagenic call (Test System: AMES SALMONELLA TYPHIMURIUM, Strain/Indicator: TA1537, Metabolic Activation: MOUSE, LIVER, S-9, Method: STANDARD PLATE) was “inactive; negative”, the mutagenic call [7] was “inactive; negative” and the mutagenic call [8] was “inactive; negative”. For the same compound, the mutagenic call (Test System: AMES SALMONELLA TYPHIMURIUM, Strain/Indicator: TA1538, Metabolic Activation: MOUSE, LIVER, S-9, Method: STANDARD PLATE) was “inactive; negative”, the mutagenic call (Test System: AMES SALMONELLA TYPHIMURIUM, Strain/Indicator: TA1538, Metabolic Activation: NONE, Method: STANDARD PLATE) was “inactive; negative” and the mutagenic call (Test System: AMES SALMONELLA TYPHIMURIUM, Strain/Indicator: TA1538, Metabolic Activation: RAT, LIVER, S-9, AROCLOR 1254, Method: STANDARD PLATE) was “inactive; negative”. For the same compound, the mutagenic call (Test System: CHINESE HAMSTER V-79, Strain/Indicator: V-79 (HPRT)/6-THIOGUANINE, Metabolic Activation: NONE) was “inactive; negative”, the mutagenic call (Test System: CHINESE HAMSTER V-79, Strain/Indicator: V-79 (HPRT)/6-THIOGUANINE, Metabolic Activation: NONE, Method: SUSPENSION/PLATE) was “active; positive” and the mutagenic call (Test System: UDS RAT HEPATOCYTES, Strain/Indicator: THY INCORP (18-20 HR), Metabolic Activation: NONE, Method: LIQUID SCINTILLATION COUNTING) was “inactive; negative”.
With `CCN(CC)c1ccc2c(C)cc(=O)oc2c1` the mutagenic call (Test System: AMES SALMONELLA TYPHIMURIUM, Strain/Indicator: TA98, Metabolic Activation: HAMSTER, LIVER, S-9, AROCLOR 1254, Method: PREINCUBATION) was “inactive; negative”, the mutagenic call (Test System: AMES SALMONELLA TYPHIMURIUM, Strain/Indicator: TA98, Metabolic Activation: NONE, Method: PREINCUBATION) was “inactive; negative” and the mutagenic call (Test System: AMES SALMONELLA TYPHIMURIUM, Strain/Indicator: TA98, Metabolic Activation: RAT, LIVER, S-9, AROCLOR 1254, Method: PREINCUBATION) was “inactive; negative”. The mutagenic call (Test System: AMES SALMONELLA TYPHIMURIUM, Strain/Indicator: TA100, Metabolic Activation: HAMSTER, LIVER, S-9, AROCLOR 1254, Method: PREINCUBATION) was “inactive; negative”, the mutagenic call (Test System: AMES SALMONELLA TYPHIMURIUM, Strain/Indicator: TA100, Metabolic Activation: NONE, Method: PREINCUBATION) was “inactive; negative” and the mutagenic call (Test System: AMES SALMONELLA TYPHIMURIUM, Strain/Indicator: TA100, Metabolic Activation: RAT, LIVER, S-9, AROCLOR 1254, Method: PREINCUBATION) was “inactive; negative”. For the same compound, the mutagenic call (Test System: AMES SALMONELLA TYPHIMURIUM, Strain/Indicator: TA1535, Metabolic Activation: HAMSTER, LIVER, S-9, AROCLOR 1254, Method: PREINCUBATION) was “inactive; negative”, the mutagenic call (Test System: AMES SALMONELLA TYPHIMURIUM, Strain/Indicator: TA1535, Metabolic Activation: NONE, Method: PREINCUBATION) was “inactive; negative” and the mutagenic call (Test System: AMES SALMONELLA TYPHIMURIUM, Strain/Indicator: TA1535, Metabolic Activation: RAT, LIVER, S-9, AROCLOR 1254, Method: PREINCUBATION) was “inactive; negative”. The mutagenic call (Test System: AMES SALMONELLA TYPHIMURIUM, Strain/Indicator: TA1537, Metabolic Activation: HAMSTER, LIVER, S-9, AROCLOR 1254, Method: PREINCUBATION) was “inactive; negative”, the mutagenic call (Test System: AMES SALMONELLA TYPHIMURIUM, Strain/Indicator: TA1537, Metabolic Activation: NONE, Method: PREINCUBATION) was “inactive; negative” and the mutagenic call (Test System: AMES SALMONELLA TYPHIMURIUM, Strain/Indicator: TA1537, Metabolic Activation: RAT, LIVER, S-9, AROCLOR 1254, Method: PREINCUBATION) was “inactive; negative”.
In the case of `CCN(CC)c1ccc(N=Nc2ccc([N+](=O)[O-])cc2)cc1`, the mutagenic call [1] is reported as “inactive; negative”, the mutagenic call [2] is reported as “active; positive” and the mutagenic call [3] is reported as “inactive; negative”. For the same compound, the mutagenic call [4] was “inactive; negative”, the mutagenic call [5] was “inactive; negative” and the mutagenic call [6] was “inactive; negative”. The mutagenic call [7] was “inactive; negative”, the mutagenic call [8] was “inactive; negative” and the mutagenic call (Test System: CHINESE HAMSTER V-79, Strain/Indicator: V-79 (HGPRT)/6-THIOGUANINE, Metabolic Activation: NONE) was “inactive; negative”. The mutagenic call (Test System: CHINESE HAMSTER V-79, Strain/Indicator: V-79 (HGPRT)/6-THIOGUANINE, Metabolic Activation: RAT, LIVER, S-9, KANECLOR 400) was “inactive; negative” and the mutagenic call (Test System: UDS RAT HEPATOCYTES, Strain/Indicator: THY INCORP, Metabolic Activation: NONE, Method: AUTORADIOGRAPHY) was “inactive; negative”.
For `Cc1ccc2ccccc2n1`, the mutagenic call [4] was “active; positive”, the mutagenic call (Test System: AMES SALMONELLA TYPHIMURIUM, Strain/Indicator: TA100, Metabolic Activation: RAT, LIVER, S-9, PHENOBARBITAL AND 5,6-BENZOFLAVONE, Method: PREINCUBATION) was “active; positive” and the mutagenic call (Test System: AMES SALMONELLA TYPHIMURIUM, Strain/Indicator: TA100, Metabolic Activation: RAT, LIVER, S-9, PHENOBARBITAL AND 5,6-NAPHTHOFLAVONE, Method: PREINCUBATION) was “active; positive”. For the same compound, the mutagenic call (Test System: AMES SALMONELLA TYPHIMURIUM, Strain/Indicator: TA100, Metabolic Activation: RAT, LIVER, S-9, Method: PREINCUBATION) was “inactive; negative” and the mutagenic call (Test System: UDS RODENT HEPATOCYTES, Strain/Indicator: THY INCORP (NON-S-PHASE), Metabolic Activation: NONE, Method: AUTORADIOGRAPHY) was “inactive; negative”.
